From ChEMBL document CHEMBL3779781, “New direct inhibitors of InhA with antimycobacterial activity based on a tetrahydropyran scaffold” (Eur J Med Chem, 2016)
Converted amounts (≈) assume the structure as drawn.

Tests used:
Moraxella catarrhalis = assay: Antibacterial activity against Moraxella catarrhalis 1502 by broth microdilution assay; assay type: functional
Streptococcus pyogenes [1] = assay: Antibacterial activity against Streptococcus pyogenes 1307006P by broth microdilution assay; assay type: functional
Enterococcus faecium = assay: Antibacterial activity against Enterococcus faecium X7501 by broth microdilution assay; assay type: functional
Streptococcus pneumoniae [2] = assay: Antibacterial activity against Streptococcus pneumoniae ERY2 by broth microdilution assay; assay type: functional
[3] = Selectivity index, ratio of TD50 for human HepG2 cells to MIC for Mycobacterium tuberculosis H37Rv ATCC 25618; assay type: toxicity, cell-based; settings: read-out: Selectivity Index
Enterococcus faecalis = assay: Antibacterial activity against Enterococcus faecalis 1 by broth microdilution assay; assay type: functional
Escherichia coli = assay: Antibacterial activity against Escherichia coli 3 by broth microdilution assay; assay type: functional
Haemophilus influenzae [4] = assay: Antibacterial activity against Haemophilus influenzae H128 by broth microdilution assay; assay type: functional
Staphylococcus aureus [5] = assay: Antibacterial activity against Staphylococcus aureus WCUH29 by broth microdilution assay; assay type: functional
Haemophilus influenzae [6] = assay: Antibacterial activity against Haemophilus influenzae H128 with Acr A- genotype by broth microdilution assay; assay type: functional
Staphylococcus aureus [7] = assay: Antibacterial activity against Staphylococcus aureus WCUH29 fmt by broth microdilution assay; assay type: functional
[8] = Inhibition of Mycobacterium tuberculosis InhA using 2-trans-decenoyl-CoA as substrate by fluorimetric analysis in presence of NADH
Streptococcus pyogenes [9] = assay: Antibacterial activity against Streptococcus pyogenes 1308007P by broth microdilution assay; assay type: functional
Staphylococcus aureus [10] = assay: Antibacterial activity against Staphylococcus aureus Oxford by broth microdilution assay; assay type: functional
[11] = system: Mycobacterium tuberculosis; assay: Antimycobacterial activity against Mycobacterium tuberculosis H37Rv ATCC 25618 infected in human THP1 cells assessed as reduction in cell viability after 5 days by luciferase reporter gene assay; assay type: functional; settings: H37Rv ATCC 25618, THP-1, 120 h
[12] = target: Voltage-gated inwardly rectifying potassium channel KCNH2 (Homo sapiens, UniProt Q12809); assay: Inhibition of human ERG by QPatch assay
[13] = Cytotoxicity against human HepG2 cells by ATP bioluminescence assay; assay type: cell-based; settings: read-out: TD50 (the source's name)
Streptococcus pneumoniae [14] = assay: Antibacterial activity against Streptococcus pneumoniae 1629 by broth microdilution assay; assay type: functional
[15] = Kinetic solubility of compound in DMSO/phosphate buffered saline at pH7.4 by chemiluminescent nitrogen detection method; assay type: physicochemical; settings: pH 7.4, read-out: Kinetic_solubility
Streptococcus pneumoniae [16] = assay: Antibacterial activity against Streptococcus pneumoniae N1387 by broth microdilution assay; assay type: functional
[17] = system: Mycobacterium tuberculosis; assay: Antimycobacterial activity against Mycobacterium tuberculosis H37Rv ATCC 25618 after 2 weeks; assay type: functional; settings: H37Rv ATCC 25618, 336 h
[18] = system: Mycobacterium tuberculosis; assay: Antimycobacterial activity against Mycobacterium tuberculosis H37Rv by broth microdilution assay; assay type: functional
[19] = system: Mycobacterium tuberculosis; assay: Antimycobacterial activity against Mycobacterium tuberculosis H37Rv; assay type: functional
Haemophilus influenzae [20] = assay: Antibacterial activity against Haemophilus influenzae Q1 by broth microdilution assay; assay type: functional

Voltage-gated inwardly rectifying potassium channel KCNH2, sequence (Q12809 whole entry): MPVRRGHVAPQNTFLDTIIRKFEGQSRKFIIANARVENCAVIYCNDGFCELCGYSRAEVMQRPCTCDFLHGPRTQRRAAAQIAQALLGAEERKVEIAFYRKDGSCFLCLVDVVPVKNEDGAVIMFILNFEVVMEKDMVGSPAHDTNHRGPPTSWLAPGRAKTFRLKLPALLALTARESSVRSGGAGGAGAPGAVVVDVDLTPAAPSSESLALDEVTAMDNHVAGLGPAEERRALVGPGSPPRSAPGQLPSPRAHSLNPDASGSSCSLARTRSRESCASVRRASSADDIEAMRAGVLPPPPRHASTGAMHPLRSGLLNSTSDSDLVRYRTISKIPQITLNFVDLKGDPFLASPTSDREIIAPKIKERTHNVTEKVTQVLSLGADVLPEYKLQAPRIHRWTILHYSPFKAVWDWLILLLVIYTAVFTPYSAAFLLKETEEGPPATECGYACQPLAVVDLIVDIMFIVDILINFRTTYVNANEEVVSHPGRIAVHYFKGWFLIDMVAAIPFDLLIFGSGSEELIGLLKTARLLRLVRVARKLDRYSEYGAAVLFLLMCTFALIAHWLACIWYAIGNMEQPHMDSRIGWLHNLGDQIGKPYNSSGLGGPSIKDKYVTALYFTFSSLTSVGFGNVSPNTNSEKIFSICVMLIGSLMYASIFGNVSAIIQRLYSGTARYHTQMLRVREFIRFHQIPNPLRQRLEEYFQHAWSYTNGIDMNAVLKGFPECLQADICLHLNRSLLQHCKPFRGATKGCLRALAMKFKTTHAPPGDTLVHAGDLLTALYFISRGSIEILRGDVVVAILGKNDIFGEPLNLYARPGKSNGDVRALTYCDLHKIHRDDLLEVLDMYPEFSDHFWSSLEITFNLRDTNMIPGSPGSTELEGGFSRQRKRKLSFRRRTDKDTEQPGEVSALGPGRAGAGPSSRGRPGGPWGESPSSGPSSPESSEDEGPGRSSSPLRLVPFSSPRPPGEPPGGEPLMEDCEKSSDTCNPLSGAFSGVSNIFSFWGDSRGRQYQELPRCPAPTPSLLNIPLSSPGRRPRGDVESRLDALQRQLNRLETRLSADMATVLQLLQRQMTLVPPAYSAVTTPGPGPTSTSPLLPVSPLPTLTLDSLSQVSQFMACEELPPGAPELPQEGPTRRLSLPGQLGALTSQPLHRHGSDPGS

Cc1cc(C)n(Cc2ccc(C(=O)NCC3(c4nc(-c5ccccc5)cs4)CCOCC3)cc2)n1
MIC80 (Moraxella catarrhalis): 32 µg/mL (≈ 65.8 µM) | MIC80 (Streptococcus pyogenes [1]): > 64 µg/mL | MIC80 (Enterococcus faecium): > 64 µg/mL | MIC80 (Streptococcus pneumoniae [2]): > 64 µg/mL | selectivity ratio [3]: 8.5 | MIC80 (Enterococcus faecalis): > 64 µg/mL | MIC80 (Escherichia coli): > 64 µg/mL | MIC80 (Haemophilus influenzae [4]): > 64 µg/mL | MIC80 (Staphylococcus aureus [5]): > 64 µg/mL | MIC80 (Haemophilus influenzae [6]): > 64 µg/mL | MIC80 (Staphylococcus aureus [7]): > 64 µg/mL | IC50 [8]: 0.02 µM | MIC80 (Streptococcus pyogenes [9]): > 64 µg/mL | MIC80 (Staphylococcus aureus [10]): > 64 µg/mL | IC90 [11]: 3.98 µM | IC50 [12]: 44.9 µM | CC50 [13]: 100 µM | MIC80 (Streptococcus pneumoniae [14]): > 64 µg/mL | solubility kinetic [15]: 115 µM (≈ 56 µg/mL) | MIC80 (Streptococcus pneumoniae [16]): > 64 µg/mL | MIC [17]: 11.7 µM (≈ 5.69 µg/mL) | MIC80 [18]: 5.7 µg/mL (≈ 11.7 µM) | MIC [19]: 7.8 µM | MIC80 (Haemophilus influenzae [20]): > 64 µg/mL

Cc1cnc(Nc2ccc(C(=O)NCC3(c4nc(-c5ccccc5)cs4)CCOCC3)cc2)s1
IC50 [8]: > 10 µM | CC50 [13]: > 100 µM | solubility kinetic [15]: < 1 µM | MIC [17]: > 80 µM

COc1ccc(C2(CNC(=O)c3ccc(Cn4nc(C)cc4C)cc3)CCOCC2)cc1
IC50 [8]: 6.38 µM | CC50 [13]: > 100 µM | solubility kinetic [15]: ≥ 458 µM | MIC [17]: > 125 µM

O=C(NCC1(c2nc(-c3ccccc3)cs2)CCOCC1)c1ccc(N2CCOCC2)cc1
IC50 [8]: > 1 µM | CC50 [13]: > 100 µM | solubility kinetic [15]: 138 µM (≈ 64 µg/mL) | MIC [17]: > 125 µM

O=C(NCC1(c2nc(-c3ccccc3)cs2)CCOCC1)c1ccc(Nc2ccccn2)cc1
IC50 [8]: > 10 µM | CC50 [13]: 63.1 µM | solubility kinetic [15]: 12 µM (≈ 5.65 µg/mL) | MIC [17]: > 80 µM

O=C(NCC1(c2nc(-c3ccccc3)cs2)CCOCC1)c1ccc(Nc2nc3ccccc3s2)cc1
IC50 [8]: > 10 µM | CC50 [13]: 12.6 µM | solubility kinetic [15]: 4 µM (≈ 2.11 µg/mL) | MIC [17]: > 125 µM

O=C(NCC1(c2nc(-c3ccccc3)cs2)CCOCC1)c1ccc(Nc2nncs2)cc1
IC50 [8]: > 10 µM | CC50 [13]: 63.1 µM | solubility kinetic [15]: 29 µM (≈ 13.9 µg/mL) | MIC [17]: > 125 µM

Cn1c(Nc2ccc(C(=O)NCC3(c4nc(-c5ccccc5)cs4)CCOCC3)cc2)nc2ccccc21
IC50 [8]: > 10 µM | CC50 [13]: 20 µM | solubility kinetic [15]: 10 µM (≈ 5.24 µg/mL) | MIC [17]: 94 µM (≈ 49.2 µg/mL)

O=C(NCC1(c2nc(-c3ccccc3)cs2)CCOCC1)c1ccc(-n2ccnc2)cc1
IC50 [8]: > 1 µM | CC50 [13]: > 100 µM | solubility kinetic [15]: 193 µM (≈ 85.8 µg/mL) | MIC [17]: > 125 µM

O=C(NCC1(c2nc(-c3ccccc3)cs2)CCOCC1)c1ccc(CN2CCCCC2)cc1
IC50 [8]: > 1 µM | CC50 [13]: 79.4 µM | solubility kinetic [15]: ≥ 396 µM | MIC [17]: > 125 µM

Cc1cc(C)n(-c2ccc(C(=O)NCC3(c4nc(-c5ccccc5)cs4)CCOCC3)cc2)n1
IC50 [8]: > 100 µM | CC50 [13]: 87.1 µM | solubility kinetic [15]: 33 µM (≈ 15.6 µg/mL) | MIC [17]: 80 µM (≈ 37.8 µg/mL)

NNC(=O)c1ccncc1 [ISONIAZID]
MIC [19]: 0.5 µg/mL

COc1ccccc1-c1csc(C2(CNC(=O)c3ccc(Cn4nc(C)cc4C)cc3)CCOCC2)n1
selectivity ratio [3]: 10 | IC50 [8]: 0.036 µM | CC50 [13]: 50.1 µM | solubility kinetic [15]: 78 µM (≈ 40.3 µg/mL) | MIC [17]: 5 µM (≈ 2.58 µg/mL)

Cc1cc(C)n(Cc2ccc(C(=O)NCC3(c4ccccn4)CCOCC3)cc2)n1
IC50 [8]: > 10 µM | CC50 [13]: > 100 µM | solubility kinetic [15]: ≥ 445 µM | MIC [17]: > 125 µM

O=C(NCC1(c2nc(-c3ccccc3)cs2)CCOCC1)c1ccc(-n2cncn2)cc1
IC50 [8]: > 10 µM | CC50 [13]: > 100 µM | solubility kinetic [15]: 191 µM (≈ 85.1 µg/mL) | MIC [17]: 125 µM (≈ 55.7 µg/mL)

COc1cccc(-c2csc(C3(CNC(=O)c4ccc(Cn5nc(C)cc5C)cc4)CCOCC3)n2)c1
IC50 [8]: 0.323 µM | CC50 [13]: 50.1 µM | solubility kinetic [15]: 72 µM (≈ 37.2 µg/mL) | MIC [17]: 20 µM (≈ 10.3 µg/mL)

Cc1cc(C)n(Cc2ccc(C(=O)NCC3(c4ccc(-c5ccccc5)cc4)CCOCC3)cc2)n1
selectivity ratio [3]: 5 | IC50 [8]: 0.029 µM | CC50 [13]: 79.4 µM | solubility kinetic [15]: 77 µM (≈ 36.9 µg/mL) | MIC [17]: 16 µM (≈ 7.67 µg/mL)

Cn1ccc(Nc2ccc(C(=O)NCC3(c4nc(-c5ccccc5)cs4)CCOCC3)cc2)n1
IC50 [8]: 5.56 µM | CC50 [13]: 79.4 µM | solubility kinetic [15]: 48 µM (≈ 22.7 µg/mL) | MIC [17]: > 125 µM

Cc1cc(C)n(Cc2ccc(C(=O)NCC3(c4ccc5c(c4)OCO5)CCOCC3)cc2)n1
IC50 [8]: 7.94 µM | CC50 [13]: > 100 µM | solubility kinetic [15]: ≥ 478 µM | MIC [17]: 125 µM (≈ 55.9 µg/mL)

O=C(NCC1(c2nc(-c3ccccc3)cs2)CCOCC1)c1ccc(-c2cnco2)cc1
IC50 [8]: > 1 µM | CC50 [13]: 79.4 µM | solubility kinetic [15]: 71 µM (≈ 31.6 µg/mL) | MIC [17]: 125 µM (≈ 55.7 µg/mL)
